IC50 data for 19 compounds are collected here from patent US9682991B2, “Tricyclic compounds for use as kinase inhibitors” (FUNDACIÓN CENTRO NACIONAL DE INVESTIGACIONES ONCOLOGICAS …, priority 2009, dated 2017).

One assay deals with PIM-2 (Homo sapiens (Human), UniProt Q9P1W9). Put plainly: PIM-2 biochemical assay (ADP Hunter). As to conditions: semi-quantitative; read-out: PIM2 IC50. From the text:
The biochemical assay to measure PIM-2 activity relies on the ADP Hunter assay kit (DiscoveRx Corp., Cat. #90-0077), that determines the amount of ADP as direct product of the kinase enzyme activity.

In the next assay the target is PIM-1 (Homo sapiens (Human), UniProt P11309). The assay can be described thus: PIM-1 biochemical assay (ADP Hunter).
Setting [1] is: read-out: PIM1 IC50, semi-quantitative.

Read-outs that look alike come from different tables or passages of the source.

Sequence of PIM-2 (Q9P1W9 whole entry): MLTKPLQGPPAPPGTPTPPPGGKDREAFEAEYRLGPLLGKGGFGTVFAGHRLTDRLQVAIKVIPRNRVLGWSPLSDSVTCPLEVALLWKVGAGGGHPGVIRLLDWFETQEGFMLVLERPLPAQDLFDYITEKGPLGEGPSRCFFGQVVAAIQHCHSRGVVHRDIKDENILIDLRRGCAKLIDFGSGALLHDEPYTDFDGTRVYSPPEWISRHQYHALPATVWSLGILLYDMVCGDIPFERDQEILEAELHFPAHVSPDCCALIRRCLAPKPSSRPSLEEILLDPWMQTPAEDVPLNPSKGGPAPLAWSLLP
Sequence of PIM-1 (P11309 whole entry): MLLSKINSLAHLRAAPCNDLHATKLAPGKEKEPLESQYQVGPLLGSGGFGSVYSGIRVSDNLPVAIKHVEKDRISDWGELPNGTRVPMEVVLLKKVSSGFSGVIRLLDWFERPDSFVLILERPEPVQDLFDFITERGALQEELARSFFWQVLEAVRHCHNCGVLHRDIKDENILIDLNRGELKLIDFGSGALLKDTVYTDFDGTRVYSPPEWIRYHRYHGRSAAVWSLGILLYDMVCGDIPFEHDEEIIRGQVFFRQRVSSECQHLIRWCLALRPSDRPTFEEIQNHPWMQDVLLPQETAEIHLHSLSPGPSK

Turning to `CN1CCOc2c(N(C)C3CCNCC3)nn3c(-c4cccc(OC(F)(F)F)c4)nnc3c21` [Example 45, Methyl-[9-methyl-3-(3-trifluoromethoxy-phenyl)-8,9-dihydro-7H-6-oxa-1,2,3a,4,9-pentaaza-cyclopenta[a]naphthalen-5-yl]-piperidin-4-yl-amine], the values for the IC50 at PIM-2 and on PIM-1 were above 1000 nM and 100 to 1000 nM, respectively.

For `CN1CCOc2c(NCc3ccc(F)cc3)nn3c(-c4cccc(OC(F)(F)F)c4)nnc3c21` [Example 10, (4-Fluoro-benzyl)-[9-methyl-3-(3-trifluoromethoxy-phenyl)-8,9-dihydro-7H-6-oxa-1,2,3a,4,9-pentaaza-cyclopenta[a]naphthalen-5-yl]-amine], the IC50 at PIM-2 and at PIM-1 (setting [1]) was above 1000 nM throughout.

In the case of `CN1CCN(C)c2c1c(NCc1ccc(F)cc1)nn1c(-c3ccc(O)cc3)nnc21` [Example 94, 4-[5-(4-Fluoro-benzylamino)-6,9-dimethyl-6,7,8,9-tetrahydro-1,2,3a,4,6,9-hexaaza-cyclopenta[a]naphthalen-3-yl]-phenol], the values for the IC50 at PIM-2, at PIM-1 and on PIM-1 (setting [1]) were above 1000 nM, 100 to 1000 nM and below 100 nM, respectively.

As for `CCN1CCOc2c1c(NCC1CC1)nn1c(-c3cccc(OC(F)(F)F)c3)nnc21` [Example 11, Cyclopropylmethyl-[6-ethyl-3-(3-trifluoromethoxy-phenyl)-7,8-dihydro-6H-9-oxa-1,2,3a,4,6-pentaaza-cyclopenta[a]naphthalen-5-yl]-amine], the IC50 (in general, the midpoint of a concentration-inhibition curve) is 100 to 1000 nM on PIM-2 and below 100 nM at PIM-1 (setting [1]).

Consider `CCN1CCOc2c(NC3CCOCC3)nn3c(-c4cccc(OC(F)(F)F)c4)nnc3c21` [Example 14, [9-Ethyl-3-(3-trifluoromethoxy-phenyl)-8,9-dihydro-7H-6-oxa-1,2,3a,4,9-pentaaza-cyclopenta[a]naphthalen-5-yl]-(tetrahydro-pyran-4-yl)-amine], for which the IC50 at PIM-2 is above 1000 nM; against PIM-1, 100 to 1000 nM; at PIM-1 (read-out: PIM1 IC50), 583 nM.

For the compound `FC(F)(F)Oc1cccc(-c2nnc3c4c(c(NCC5CC5)nn23)OCCO4)c1` [Example 102, Cyclopropylmethyl-[3-(3-trifluoromethoxy-phenyl)-7,8-dihydro-6,9-dioxa-1,2,3a,4-tetraaza-cyclopenta[a]naphthalen-5-yl]-amine], the IC50 on PIM-2 and at PIM-1 (setting [1]) was below 100 nM throughout.

As to `CN1CCC(CNc2nn3c(-c4ccc(O)cc4)nnc3c3c2N(C)CCO3)CC1` [Example 84, 4-{6-Methyl-5-[(1-methyl-piperidin-4-ylmethyl)-amino]-7,8-dihydro-6H-9-oxa-1,2,3a,4,6-pentaaza-cyclopenta[a]naphthalen-3-yl}-phenol], the values for the IC50 at PIM-2 and against PIM-1 were above 1000 nM and 100 to 1000 nM, respectively.

In the case of `COc1ccc(-c2nnc3c4c(c(NCc5ccc(F)cc5)nn23)OCCN4C)cc1` [Example 80, (4-Fluoro-benzyl)-[3-(4-methoxy-phenyl)-9-methyl-8,9-dihydro-7H-6-oxa-1,2,3a,4,9-pentaaza-cyclopenta[a]naphthalen-5-yl]-amine], the IC50 at PIM-2 and at PIM-1 (setting [1]) was above 1000 nM throughout.

On to `CN1CCOc2c(NCC3CC3)nn3c(-c4cccc(OC(F)(F)F)c4)nnc3c21` [Example 8, Cyclopropylmethyl-[9-methyl-3-(3-trifluoromethoxy-phenyl)-8,9-dihydro-7H-6-oxa-1,2,3a,4,9-pentaaza-cyclopenta[a]naphthalen-5-yl]-amine], for which the values for the IC50 on PIM-2 and against PIM-1 were above 1000 nM and 100 to 1000 nM, respectively.

As for `CC(=O)N1CCN(CCNc2nn3c(-c4cccc(OC(F)(F)F)c4)nnc3c3c2OCCN3C)CC1` [Example 95, 1-(4-{2-[9-Methyl-3-(3-trifluoromethoxy-phenyl)-8,9-dihydro-7H-6-oxa-1,2,3a,4,9-pentaaza-cyclopenta[a]naphthalen-5-ylamino]-ethyl}-piperazin-1-yl)-ethanone], the IC50 at PIM-2 and at PIM-1 (setting [1]) was above 1000 nM throughout.

Consider `CC(C)NC1CC2(CCN(c3nn4c(-c5cccc(OC(F)(F)F)c5)nnc4c4c3N(C)CCO4)CC2)C1` [Example 87, Isopropyl-{7-[6-methyl-3-(3-trifluoromethoxy-phenyl)-7,8-dihydro-6H-9-oxa-1,2,3a,4,6-pentaaza-cyclopenta[a]naphthalen-5-yl]-7-aza-spiro[3.5]non-2-yl}-amine], for which the IC50 on PIM-1 (setting [1]) was below 100 nM.

As to `CC1COc2c(NCC3CCN(C)CC3)nn3c(-c4cccc(OC(F)(F)F)c4)nnc3c2N1C` (stereo not shown) [Example 38, [8,9-Dimethyl-3-(3-trifluoromethoxy-phenyl)-8,9-dihydro-7H-6-oxa-1,2,3a,4,9-pentaaza-cyclopenta[a]naphthalen-5-yl]-(1-methyl-piperidin-4-ylmethyl)-amine], the IC50 against PIM-1 fell in the range of 100 to 1000 nM.

Turning to `CN1CCOc2c1c(N1CCC3(CCCNC3)CC1)nn1c(-c3cccc(OC(F)(F)F)c3)nnc21` [Example 67, 5-(2,9-Diaza-spiro[5.5]undec-9-yl)-6-methyl-3-(3-trifluoromethoxy-phenyl)-7,8-dihydro-6H-9-oxa-1,2,3a,4,6-pentaaza-cyclopenta[a]naphthalene], on PIM-1 (setting [1]), the IC50 is below 100 nM.

In the case of `CN(CC1CCNCC1)c1nn2c(-c3cccc(OC(F)(F)F)c3)nnc2c2c1N(C)CCO2` [Example 64, Methyl-[6-methyl-3-(3-trifluoromethoxy-phenyl)-7,8-dihydro-6H-9-oxa-1,2,3a,4,6-pentaaza-cyclopenta[a]naphthalen-5-yl]-piperidin-4-ylmethyl-amine], at PIM-1 (setting [1]), the IC50 is below 100 nM.

For the compound `CN1CCOc2c1c(N[C@H]1CC[C@H](N)CC1)nn1c(-c3cccc(OC(F)(F)F)c3)nnc21` [Example 71, N-[6-Methyl-3-(3-trifluoromethoxy-phenyl)-7,8-dihydro-6H-9-oxa-1,2,3a,4,6-pentaaza-cyclopenta[a]naphthalen-5-yl]-cyclohexane-1,4-diamine], the IC50 at PIM-1 (setting [1]) was below 100 nM.

For `CC1COc2c(c(N3CCC4(CC3)CC(N)C4)nn3c(-c4cccc(OC(F)(F)F)c4)nnc23)N1C` (stereo not shown) [Example 50, 7-[6,7-Dimethyl-3-(3-trifluoromethoxy-phenyl)-7,8-dihydro-6H-9-oxa-1,2,3a,4,6-pentaaza-cyclopenta[a]naphthalen-5-yl]-7-aza-spiro[3.5]non-2-ylamine], on PIM-1 (setting [1]), the IC50 was below 100 nM.

For the compound `CN1CCOc2c1c(N[C@H]1CC[C@H](O)CC1)nn1c(-c3cccc(OC(F)(F)F)c3)nnc21` [Example 19, 4-[6-Methyl-3-(3-trifluoromethoxy-phenyl)-7,8-dihydro-6H-9-oxa-1,2,3a,4,6-pentaaza-cyclopenta[a]naphthalen-5-ylamino]-cyclohexanol], the IC50 on PIM-1 (setting [1]) is below 100 nM.

In the case of `CN1CCOc2c(NCCN3CCNCC3)nn3c(-c4cccc(OC(F)(F)F)c4)nnc3c21` [Example 42, [9-Methyl-3-(3-trifluoromethoxy-phenyl)-8,9-dihydro-7H-6-oxa-1,2,3a,4,9-pentaaza-cyclopenta[a]naphthalen-5-yl]-(2-piperazin-1-yl-ethyl)-amine], at PIM-1, the IC50 lay in the range of 100 to 1000 nM.

Regarding `CN1CCOc2c1c(N[C@H]1CC[C@@H](N)CC1)nn1c(-c3cccc(OC(F)(F)F)c3)nnc21` [Example 70, N-[6-Methyl-3-(3-trifluoromethoxy-phenyl)-7,8-dihydro-6H-9-oxa-1,2,3a,4,6-pentaaza-cyclopenta[a]naphthalen-5-yl]-cyclohexane-1,4-diamine], the IC50 on PIM-1 (setting [1]) is below 100 nM.
